Measured values reported in patent US10548911B2, “Small molecule anti-scarring agents” (UNIVERSITY OF ROCHESTER, priority 2014, dated 2020).
“Also recorded” adds a separate entry of the source.

What was measured:
[1] = test system: TGFβ-induced SBE-luciferase activity; experiment: Secondary dual luciferase screen (SBE-luciferase normalized to constitutive Renilla luciferase); assay type: cell-based, human; settings: for inhibition of luciferase expression, dose responsiveness: secondary dual luciferase screen, several doses (low micromolar)
Method: FIG. 1A is a diagram of Smad-dependent reporter construct. Four tandem Smad binding elements (SBE) were inserted upstream of the minimal Thymidine Kinase (TK) promoter. Downstream of the promoter is a destabilized version of the firefly luciferase gene (luc2P) present in the pLuc2P-Hygro plasmid which also harbors the hygromycin resistance gene. The plasmid was introduced into HEK293FT cell line and individual colonies were selected with hygromycin (200 ug/ml) to develop a Smad/TGFβ dependent-luciferase reporter cell line. FIG. 1B is a graph illustrating the response of the reporter cell line to 1 ng/ml treatment of TGFβ for 20 hours, which results in an approximately 20-fold increase of luciferase activity.
They are: Benzbromarone (“BZB”), Bithionate sodium (“BTS”), Piplartine (piperlongumine) (“PPT”), Amsacrine (“ASC”), and Alexidine (“AXD”). A secondary luciferase screening assay was performed to determine specificity and dose responsiveness of these compounds in comparison to salinomycin (“SNC”). The secondary screen utilizes dual luciferase technology that includes the above mentioned SBE-luciferase in addition to a Renilla luciferase that is under control of the constitutive SV40 promoter. Therefore the SBE-luciferase activity can be normalized to the Renilla luciferase activity to control for toxicity and non-specific effects. The secondary screen can thus be used to remove small molecules that display overt toxicity and/or non-specific effects on the primary assay.

[2] = test system: TGFβ-induced myofibroblast formation in human fibroblasts; experiment: Western blot of myofibroblast markers αSMA and calponin in TGFβ-treated human (TED orbital) fibroblasts; assay type: cell-based; settings: 250 nM, 72 hours
[3] = test system: TGFβ-dependent myofibroblast formation in primary human fibroblasts; experiment: Myofibroblast formation assay in primary human fibroblasts (morphology, Western blot) for Spectrum hits; assay type: cell-based
Method: Using the lowest effective dose from the secondary screening assay, PPT (5 μM), ASC (1 μM), BTS (1 μM), and AXD (1 μM) were compared to 0.1 μM SNC using primary human fibroblasts (FIG. 13). The myofibroblast formation assay consists of the following protocol: fibroblasts are treated with the aforementioned small molecules and treated with TGFβ (1 ng/ml) for 72 hours. The cells were then either photographed for morphological analysis or collected, lysed and analyzed by Western blot for the myofibroblast markers alpha-smooth muscle actin (αSMA) and calponin. β-tubulin was used as a loading control.
PPT was used at 1 and 5 μM (lanes 3 and 4), BTS was used at 0.1 and 1 μM (lanes 5 and 6), ASC was used at 0.1 and 1 μM (lanes 7 and 8), SNC was used at 100 nM and 1 μM (lanes 9 and 10), and AXD was used at 0.1 and 1 μM (lanes 11 and 12).

p38 = settings: human ovarian cancer, 2-7 uM; cited from earlier work
[4] = test system: collagen production of TGFβ induced myofibroblasts; experiment: Collagen production assay (collagen I slot blot of culture supernatant); assay type: cell-based, human; settings: 72 hours
Method: Cell culture supernatant was collected and transferred (5-20 ul) to PVDF membrane using a slot blot device. The membrane was blocked and probed with a goat anti-collagen antibody (1:5000), washed and incubated with a donkey anti-goat antibody conjugated to HRP. Band intensities were quantified using ImageLab software and values were normalized to vehicle treatments.
TED fibroblasts were treated with TGFβ (1 ng/ml) in the presence or absence of 10-250 nM salinomycin for 72 hours to allow formation of myofibroblasts. After 72 hours, cells were harvested and analyzed by Western blot. As expected, the fibroblasts robustly responded to TGFβ, expressing high levels of αSMA and calponin (FIG. 2A). […] At 50 nM salinomycin, expression of αSMA was reduced by 4-fold over TGFβ treatment alone. Furthermore, at 250 nM salinomycin, αSMA expression was reduced by approximately 16-fold, to levels at or below untreated fibroblasts. […] Another key role of myofibroblasts in scar formation is the production of collagen. Whether salinomycin could block myofibroblast collagen production was assessed. Cells were treated with TGFβ and salinomycin as above and after 72 hours, culture medium was collected and analyzed for collagen levels using a specific collagen I antibody and slot blot analysis.

[5] = test system: TGFβ induced Smad-luc activity; experiment: Smad-luc reporter in human orbital fibroblasts electroporated with control or MKK6(glu) plasmid; assay type: cell-based; settings: 250 nM, 24 hours
Method: Plasmid DNA was introduced into human fibroblasts by electroporation. Plasmids were electroporated with an Amaxa nucleofector (program U-025) into 1×10^6 cells. The pcDNA3-flag MKK6(glu) plasmid was obtained from Addgene (plasmid 13518, from Roger Davis' lab). After transfection cells were cultured for 12-24 hours and culture medium was subsequently changed to treatment conditions.
To further test if salinomycin targets the p38 pathway to block myofibroblast formation, a plasmid encoding a mutant MKK6 (pcDNA3-flag MKK6(glu)) protein was used. MKK6 phosphorylates and thus activates p38 in response to extracellular signals such as TGFβ or other environmental stresses. The MKK6(glu) protein, which harbors glutamate mutations at amino acid residues serine 207 and threonine 211, is constitutively active and thus phosphorylates p38 irrespective of signal (Raingeaud et al., “MKK3- and MKK6-regulated gene expression is mediated by the p38 mitogen-activated protein kinase signal transduction pathway,” Mol. Cell. Biol. 16:1247-1255 (1996), which is hereby incorporated by reference in its entirety). Thus, if salinomycin is blocking the p38 signaling pathway, MKK6(glu) should overcome the effect of salinomycin. MKK6(glu) was first tested using the SBE4-TK-luc reporter plasmid. The luciferase reporter plasmid was introduced into human fibroblasts along with the MKK6(glu) plasmid or a control plasmid (pcDNA3-GFP). Cells were then treated with vehicle, TGFβ or TGFβ plus 250 nM salinomycin. After 24 hours, luciferase activity was measured (FIG. 6A). […] MKK6(glu) was further tested to assess whether it could attenuate the ability of salinomycin to inhibit p38 phosphorylation. Control or MKK6(glu) plasmids were introduced into human fibroblasts by electroporation and then cells were treated with TGFβ for 24 hours. Following treatment, cells were analyzed for flag-MKK6(glu) expression and phospho-p38 by Western blot (FIG. 6B). […] Samples were analyzed for expression of flag-MKK6(glu), αSMA, calponin and β-tubulin by Western blot (FIG. 6C).

With CC[C@@H](C(=O)[C@@H](C)[C@@H](O)[C@H](C)[C@@H]1O[C@@H]([C@@H](CC)C(=O)O)CC[C@@H]1C)[C@H]1O[C@]2(C=C[C@@H](O)[C@]3(CC[C@@](C)([C@H]4CC[C@](O)(CC)[C@H](C)O4)O3)O2)[C@H](C)C[C@@H]1C [salinomycin] the “TGFβ-induced SBE-luciferase activity level” value ([1]; 1 uM) was “below baseline levels”, the “inhibition of luciferase expression, dose responsiveness” value [1] was “dose dependent decrease; also recorded: dose responsive decrease” and the “inhibition of luciferase expression, dose responsiveness” value ([1]; listed as SNC) was “substantially inhibited luciferase expression”. The “TGFβ induced expression of αSMA and calponin” value ([2]; MKK6(glu) expressing cells) was “attenuated the ability of salinomycin to block”, the “TGFβ induced expression of αSMA and calponin” value ([2]; control GFP expressing cells) was “blocked their induction” and the “α-SMA and calponin expression in human fibroblasts” value ([3]; FIG. 14 lanes: PPT 1, 5 uM, BTS, ASC, AXD 0.1, 1 uM, SNC 100 nM, 1 uM) was “inhibit β-dependent α-SMA and calponin expression”. For the same compound, the “expression of Thy1” value ([3]; both doses, 100 nM and 1 μM) was “inhibits expression of Thy1”, the “TGFβ-dependent αSMA and calponin (marker) expression” value ([3]; lower dose, 100 nM) was “effective even at the lower dose” and the “myofibroblast formation / phenotype” value ([3]; lowest effective dose from secondary screen: PPT 5 μM, ASC, BTS, AXD 1 μM, SNC 0.1 μM, TGFβ 1 ng/ml, 72 hours) was “inhibit myofibroblast phenotype”. The p38 activity (p38) was “activated”, the collagen production ([4]; 10 nM) was “decreases” and the collagen production ([4]; 100 nM) was “at baseline levels”. For the same compound, the collagen production ([4]; 250 nM) was “below baseline levels”, the “collagen I levels, dose dependence” value ([4]; 10-250 nM) was “dose-dependent manner” and the “TGFβ-induced Smad-luc (luciferase) activity” value (from here on “TGFβ-induced Smad-luc”) ([5]; constitutively active MKK6(glu) plasmid) was “attenuated the effect of salinomycin; also recorded: unable to block TGFβ-induced luciferase activity”. The “TGFβ-induced Smad-luc” value ([5]; control (GFP) plasmid) was “completely blocked TGFβ-induced luciferase activity” and the “TGFβ-induced Smad-luc” value ([5]; control (GFP) plasmid, listed as Salinomycin) was “blocked TGFβ induced Smad-luc activity”.
